Laboratory results: US20080292619A1, “Pharmaceutical Composition Containing Meltrin Antagonist” (MOCHIDA PHARMACEUTICAL CO., LTD., priority 2004, published 2008)
In the oligonucleotide strings, read from the 5' end, every base follows the letter of its sugar. An asterisk marks phosphorothioate; unmarked linkages are phosphodiester. Other units and linkages are bracketed, terminal groups are in braces. A string of capitals states the bases alone. d = 2'-deoxy (DNA)

System: human meltrin α RNA
Test: Suppression of human meltrin α expression by antisense compound in RD cell (real time PCR)
Assay type: cell-based
Details: RD cell, corrected by GAPDH
Procedure, shortened: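 RD cells transfected with heat-denatured antisense oligodeoxynucleotide plus Lipofectin in Opti-MEM for 4 h at 37° C, then cultured 18 h. Meltrin α RNA quantified by TaqMan RT-PCR against plasmid standard curve, GAPDH-corrected; suppression vs untreated cells, rated +/++/+++ for ≥30/50/70%.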

| Substance | suppression rate of expression, 50 nM | suppression rate of expression, 200 nM |
| --- | --- | --- |
| H144: cagaggcttctgaggggggt (CAGAGGCTTCTGAGGGGGGT; antisense; DNA, all phosphorothioate, methylation of C not given here) | + (“+” when the suppression rate was at least 30%) | ++ (“++” when the suppression rate was at least 50%) |
| H145 + 1: tctggccagaggatctgcag (TCTGGCCAGAGGATCTGCAG; antisense; DNA, all phosphorothioate, methylation of C not given here) | +++ (“+++” when the suppression rate was at least 70%) | – |
| H145 + 2: ttctggccagaggatctgca (dT*dT*dC*dT*dG*dG*dC*dC*dA*dG*dA*dG*dG*dA*dT*dC*dT*dG*dC*dA; antisense) | +++ (“+++” when the suppression rate was at least 70%) | – |
| H145 + 3: gttctggccagaggatctgc (dG*dT*dT*dC*dT*dG*dG*dC*dC*dA*dG*dA*dG*dG*dA*dT*dC*dT*dG*dC; antisense) | ++ (“++” when the suppression rate was at least 50%) | – |
| H145 + 4: tgttctggccagaggatctg (dT*dG*dT*dT*dC*dT*dG*dG*dC*dC*dA*dG*dA*dG*dG*dA*dT*dC*dT*dG; antisense) | ++ (“++” when the suppression rate was at least 50%) | – |
| H145 + 5: ttgttctggccagaggatct (dT*dT*dG*dT*dT*dC*dT*dG*dG*dC*dC*dA*dG*dA*dG*dG*dA*dT*dC*dT; antisense) | +++ (“+++” when the suppression rate was at least 70%) | – |
| H145 + 10: ccgagttgttctggccagag (dC*dC*dG*dA*dG*dT*dT*dG*dT*dT*dC*dT*dG*dG*dC*dC*dA*dG*dA*dG; antisense) | ++ (“++” when the suppression rate was at least 50%) | – |
| H145: ctggccagaggatctgcagg (CTGGCCAGAGGATCTGCAGG; antisense; DNA, all phosphorothioate, methylation of C not given here) | +++ (“+++” when the suppression rate was at least 70%) | +++ (“+++” when the suppression rate was at least 70%) |
| H146 + 10: ctggccaaggcatgagtgag (dC*dT*dG*dG*dC*dC*dA*dA*dG*dG*dC*dA*dT*dG*dA*dG*dT*dG*dA*dG; antisense) | + (“+” when the suppression rate was at least 30%) | – |
| H146: catgagtgagccgagttgtt (dC*dA*dT*dG*dA*dG*dT*dG*dA*dG*dC*dC*dG*dA*dG*dT*dT*dG*dT*dT; antisense) | + (“+” when the suppression rate was at least 30%) | ++ (“++” when the suppression rate was at least 50%) |
| H147: tcctggggtcctggccaagg (dT*dC*dC*dT*dG*dG*dG*dG*dT*dC*dC*dT*dG*dG*dC*dC*dA*dA*dG*dG; antisense) | ++ (“++” when the suppression rate was at least 50%) | +++ (“+++” when the suppression rate was at least 70%) |
| H148 + 5: ccaggcggagcccagtctcc (dC*dC*dA*dG*dG*dC*dG*dG*dA*dG*dC*dC*dC*dA*dG*dT*dC*dT*dC*dC; antisense) | + (“+” when the suppression rate was at least 30%) | – |
| H148 + 10: gggtgccaggcggagcccag (dG*dG*dG*dT*dG*dC*dC*dA*dG*dG*dC*dG*dG*dA*dG*dC*dC*dC*dA*dG; antisense) | ++ (“++” when the suppression rate was at least 50%) | – |
| H148: cggagcccagtctcccattg (dC*dG*dG*dA*dG*dC*dC*dC*dA*dG*dT*dC*dT*dC*dC*dC*dA*dT*dT*dG; antisense) | + (“+” when the suppression rate was at least 30%) | ++ (“++” when the suppression rate was at least 50%) |
| H149 + 10: tattgtggagcaggtctgag (dT*dA*dT*dT*dG*dT*dG*dG*dA*dG*dC*dA*dG*dG*dT*dC*dT*dG*dA*dG; antisense) | + (“+” when the suppression rate was at least 30%) | – |
| H149: caggtctgaggggtgccagg (dC*dA*dG*dG*dT*dC*dT*dG*dA*dG*dG*dG*dG*dT*dG*dC*dC*dA*dG*dG; antisense) | + (“+” when the suppression rate was at least 30%) | +++ (“+++” when the suppression rate was at least 70%) |
| H150 + 5: ggcacttggtgtggatattg (dG*dG*dC*dA*dC*dT*dT*dG*dG*dT*dG*dT*dG*dG*dA*dT*dA*dT*dT*dG; antisense) | + (“+” when the suppression rate was at least 30%) | – |
| H150 + 10: atctgggcacttggtgtgga (dA*dT*dC*dT*dG*dG*dG*dC*dA*dC*dT*dT*dG*dG*dT*dG*dT*dG*dG*dA; antisense) | ++ (“++” when the suppression rate was at least 50%) | – |
| H150 + 15: ggtggatctgggcacttggt (dG*dG*dT*dG*dG*dA*dT*dC*dT*dG*dG*dG*dC*dA*dC*dT*dT*dG*dG*dT; antisense) | + (“+” when the suppression rate was at least 30%) | – |
| H150: ttggtgtggatattgtggag (dT*dT*dG*dG*dT*dG*dT*dG*dG*dA*dT*dA*dT*dT*dG*dT*dG*dG*dA*dG; antisense) | + (“+” when the suppression rate was at least 30%) | +++ (“+++” when the suppression rate was at least 70%) |

| Substance | suppression rate of expression, 50 nM | suppression rate of expression, 200 nM |
| --- | --- | --- |
| H152: cttctcacttaatataggcg (dC*dT*dT*dC*dT*dC*dA*dC*dT*dT*dA*dA*dT*dA*dT*dA*dG*dG*dC*dG; antisense) | – | + (“+” when the suppression rate was at least 30%) |
| H153: ctgttgaaaaaaggtgtcgg (dC*dT*dG*dT*dT*dG*dA*dA*dA*dA*dA*dA*dG*dG*dT*dG*dT*dC*dG*dG; antisense) | – | ++ (“++” when the suppression rate was at least 50%) |
| H155: tccaactggagctgaaagat (dT*dC*dC*dA*dA*dC*dT*dG*dG*dA*dG*dC*dT*dG*dA*dA*dA*dG*dA*dT; antisense) | – | ++ (“++” when the suppression rate was at least 50%) |
| H156: taaaagttggtacaaaaaac (dT*dA*dA*dA*dA*dG*dT*dT*dG*dG*dT*dA*dC*dA*dA*dA*dA*dA*dA*dC; antisense) | – | + (“+” when the suppression rate was at least 30%) |
| H159: actgacggcagtagctcaaa (dA*dC*dT*dG*dA*dC*dG*dG*dC*dA*dG*dT*dA*dG*dC*dT*dC*dA*dA*dA; antisense) | – | ++ (“++” when the suppression rate was at least 50%) |
| H160: gcaccatagcacagcacagc (dG*dC*dA*dC*dC*dA*dT*dA*dG*dC*dA*dC*dA*dG*dC*dA*dC*dA*dG*dC; antisense) | – | ++ (“++” when the suppression rate was at least 50%) |
| H161: tacctgtgcaagtagacaga (dT*dA*dC*dC*dT*dG*dT*dG*dC*dA*dA*dG*dT*dA*dG*dA*dC*dA*dG*dA; antisense) | – | ++ (“++” when the suppression rate was at least 50%) |
| H163: cactgtaatcaacattctgc (dC*dA*dC*dT*dG*dT*dA*dA*dT*dC*dA*dA*dC*dA*dT*dT*dC*dT*dG*dC; antisense) | – | + (“+” when the suppression rate was at least 30%) |
| H164: atgcctactacagcgcactg (dA*dT*dG*dC*dC*dT*dA*dC*dT*dA*dC*dA*dG*dC*dG*dC*dA*dC*dT*dG; antisense) | – | ++ (“++” when the suppression rate was at least 50%) |
| H165: aaaactcagtgatggtaaaa (dA*dA*dA*dA*dC*dT*dC*dA*dG*dT*dG*dA*dT*dG*dG*dT*dA*dA*dA*dA; antisense) | – | + (“+” when the suppression rate was at least 30%) |
| H166: aacaagccttcctgccatgg (dA*dA*dC*dA*dA*dG*dC*dC*dT*dT*dC*dC*dT*dG*dC*dC*dA*dT*dG*dG; antisense) | – | ++ (“++” when the suppression rate was at least 50%) |
| H168: caagcaggatatttcaagtt (dC*dA*dA*dG*dC*dA*dG*dG*dA*dT*dA*dT*dT*dT*dC*dA*dA*dG*dT*dT; antisense) | – | + (“+” when the suppression rate was at least 30%) |
| H169: catcctgtccagaatcccat (dC*dA*dT*dC*dC*dT*dG*dT*dC*dC*dA*dG*dA*dA*dT*dC*dC*dC*dA*dT; antisense) | – | ++ (“++” when the suppression rate was at least 50%) |
| H170: ccttgatcagaaagcaaaca (dC*dC*dT*dT*dG*dA*dT*dC*dA*dG*dA*dA*dA*dG*dC*dA*dA*dA*dC*dA; antisense) | – | + (“+” when the suppression rate was at least 30%) |
| H171: gggactgctttccaataagg (dG*dG*dG*dA*dC*dT*dG*dC*dT*dT*dT*dC*dC*dA*dA*dT*dA*dA*dG*dG; antisense) | – | ++ (“++” when the suppression rate was at least 50%) |
| H172: gcacagctgggggtagttgg (dG*dC*dA*dC*dA*dG*dC*dT*dG*dG*dG*dG*dG*dT*dA*dG*dT*dT*dG*dG; antisense) | + (“+” when the suppression rate was at least 30%) | +++ (“+++” when the suppression rate was at least 70%) |
| H173: agctgcatctggtaccataa (dA*dG*dC*dT*dG*dC*dA*dT*dC*dT*dG*dG*dT*dA*dC*dC*dA*dT*dA*dA; antisense) | ++ (“++” when the suppression rate was at least 50%) | +++ (“+++” when the suppression rate was at least 70%) |
| H176: ggctctggcctgagatgggg (dG*dG*dC*dT*dC*dT*dG*dG*dC*dC*dT*dG*dA*dG*dA*dT*dG*dG*dG*dG; antisense) | – | + (“+” when the suppression rate was at least 30%) |
| H177: gcctggacctgaagcccctt (dG*dC*dC*dT*dG*dG*dA*dC*dC*dT*dG*dA*dA*dG*dC*dC*dC*dC*dT*dT; antisense) | – | +++ (“+++” when the suppression rate was at least 70%) |
